What was measured:
Rattus norvegicus [1] = organism: Rattus norvegicus; assay: Compound was evaluated for the measurement of Cerebral blood flow in medial geniculate body of Rats (hypercapnia); format: functional
Rattus norvegicus [2] = organism: Rattus norvegicus; assay: Compound was evaluated for the measurement of Cerebral blood flow in medial geniculate body of Rats (normocapnia); format: functional
Rattus norvegicus [3] = organism: Rattus norvegicus; assay: Compound was evaluated for the measurement of Cerebral blood flow in nucleus accumbens of Rats (hypercapnia); format: functional, Brain
Rattus norvegicus [4] = organism: Rattus norvegicus; assay: Compound was evaluated for the measurement of Cerebral blood flow in nucleus accumbens of Rats (normocapnia); format: functional, Brain
Rattus norvegicus [5] = organism: Rattus norvegicus; assay: Compound was evaluated for the measurement of Cerebral blood flow in nucleus ruber of Rats (hypercapnia); format: functional, Brain
Rattus norvegicus [6] = organism: Rattus norvegicus; assay: Compound was evaluated for the measurement of Cerebral blood flow in nucleus ruber of Rats (normocapnia); format: functional, Brain
Rattus norvegicus [7] = organism: Rattus norvegicus; assay: Compound was evaluated for the measurement of Cerebral blood flow in parietal cortex of Rats (hypercapnia); format: functional
Rattus norvegicus [8] = organism: Rattus norvegicus; assay: Compound was evaluated for the measurement of Cerebral blood flow in parietal cortex of Rats (normocapnia); format: functional
Rattus norvegicus [9] = organism: Rattus norvegicus; assay: Compound was evaluated for the measurement of Cerebral blood flow in piriform cortex of Rats (normocapnia); format: functional
Rattus norvegicus [10] = organism: Rattus norvegicus; assay: Compound was evaluated for the measurement of Cerebral blood flow in sensorimotor cortex of Rats (hypercapnia); format: functional, Brain
Rattus norvegicus [11] = organism: Rattus norvegicus; assay: Compound was evaluated for the measurement of Cerebral blood flow in sensorimotor cortex of Rats (normocapnia); format: functional, Brain
Rattus norvegicus [12] = organism: Rattus norvegicus; assay: Compound was evaluated for the measurement of Cerebral blood flow in septal nucleus of Rats (hypercapnia); format: functional, Brain
Rattus norvegicus [13] = organism: Rattus norvegicus; assay: Compound was evaluated for the measurement of Cerebral blood flow in septal nucleus of Rats (normocapnia); format: functional, Brain
Rattus norvegicus [14] = organism: Rattus norvegicus; assay: Compound was evaluated for the measurement of Cerebral blood flow in substantia nigra of Rats (hypercapnia); format: functional
Rattus norvegicus [15] = organism: Rattus norvegicus; assay: Compound was evaluated for the measurement of Cerebral blood flow in substantia nigra of Rats (normocapnia); format: functional
Rattus norvegicus [16] = organism: Rattus norvegicus; assay: Compound was evaluated for the measurement of Cerebral blood flow in superior coliculus of Rats (hypercapnia); format: functional, Brain
Rattus norvegicus [17] = organism: Rattus norvegicus; assay: Compound was evaluated for the measurement of Cerebral blood flow in amygdala of Rats (hypercapnia); format: functional
Rattus norvegicus [18] = organism: Rattus norvegicus; assay: Compound was evaluated for the measurement of Cerebral blood flow in amygdala of Rats (normocapnia); format: functional
Rattus norvegicus [19] = organism: Rattus norvegicus; assay: Compound was evaluated for the measurement of Cerebral blood flow in auditory cortex of Rats (hypercapnia); format: functional
Rattus norvegicus [20] = organism: Rattus norvegicus; assay: Compound was evaluated for the measurement of Cerebral blood flow in caudoputamen of Rats ((hypercapnia); format: functional, Brain
Rattus norvegicus [21] = organism: Rattus norvegicus; assay: Compound was evaluated for the measurement of Cerebral blood flow in superior coliculus of Rats (normocapnia); format: functional, Brain
Rattus norvegicus [22] = organism: Rattus norvegicus; assay: Compound was evaluated for the measurement of Cerebral blood flow in thalamus of Rats (hypercapnia); format: functional
Rattus norvegicus [23] = organism: Rattus norvegicus; assay: Compound was evaluated for the measurement of Cerebral blood flow in thalamus of Rats (normocapnia); format: functional
Rattus norvegicus [24] = organism: Rattus norvegicus; assay: Compound was evaluated for the measurement of Cerebral blood flow in visual cortex of Rats (hypercapnia); format: functional
Rattus norvegicus [25] = organism: Rattus norvegicus; assay: Compound was evaluated for the measurement of Cerebral blood flow in visual cortex of Rats (normocapnia); format: functional
Rattus norvegicus [26] = organism: Rattus norvegicus; assay: Compound was evaluated for the measurement of Cerebral blood flow in caudoputamen of Rats (normocapnia); format: functional, Brain
Rattus norvegicus [27] = organism: Rattus norvegicus; assay: Compound was evaluated for the measurement of Cerebral blood flow in cerebellum of Rats (hypercapnia); format: functional
Rattus norvegicus [28] = organism: Rattus norvegicus; assay: Compound was evaluated for the measurement of Cerebral blood flow in cerebellum of Rats (normocapnia); format: functional
Rattus norvegicus [29] = organism: Rattus norvegicus; assay: Compound was evaluated for the measurement of Cerebral blood flow in cingulate cortex of Rats (hypercapnia); format: functional, Brain
Rattus norvegicus [30] = organism: Rattus norvegicus; assay: Compound was evaluated for the measurement of Cerebral blood flow in cingulate cortex of Rats (normocapnia); format: functional, Brain
Rattus norvegicus [31] = organism: Rattus norvegicus; assay: Compound was evaluated for the measurement of Cerebral blood flow in frontal cortex of Rats (hypercapnia); format: functional
Rattus norvegicus [32] = organism: Rattus norvegicus; assay: Compound was evaluated for the measurement of Cerebral blood flow in frontal cortex of Rats (normocapnia); format: functional
Rattus norvegicus [33] = organism: Rattus norvegicus; assay: Compound was evaluated for the measurement of Cerebral blood flow in globus pallidus of Rats (hypercapnia); format: functional
Rattus norvegicus [34] = organism: Rattus norvegicus; assay: Compound was evaluated for the measurement of Cerebral blood flow in globus pallidus of Rats (normocapnia); format: functional
Rattus norvegicus [35] = organism: Rattus norvegicus; assay: Compound was evaluated for the measurement of Cerebral blood flow in habenula of Rats (hypercapnia); format: functional
Rattus norvegicus [36] = organism: Rattus norvegicus; assay: Compound was evaluated for the measurement of Cerebral blood flow in habenula of Rats (normocapnia); format: functional
Rattus norvegicus [37] = organism: Rattus norvegicus; assay: Compound was evaluated for the measurement of Cerebral blood flow in hippocampus cortex of Rats (hypercapnia); format: functional
Rattus norvegicus [38] = organism: Rattus norvegicus; assay: Compound was evaluated for the measurement of Cerebral blood flow in hippocampus cortex of Rats (normocapnia); format: functional
Rattus norvegicus [39] = organism: Rattus norvegicus; assay: Compound was evaluated for the measurement of Cerebral blood flow in hypothalamus of Rats (hypercapnia); format: functional
Rattus norvegicus [40] = organism: Rattus norvegicus; assay: Compound was evaluated for the measurement of Cerebral blood flow in hypothalamus of Rats (normocapnia); format: functional
Rattus norvegicus [41] = organism: Rattus norvegicus; assay: Compound was evaluated for the measurement of Cerebral blood flow in inferior coliculus of Rats (hypercapnia); format: functional, Brain
Rattus norvegicus [42] = organism: Rattus norvegicus; assay: Compound was evaluated for the measurement of Cerebral blood flow in inferior coliculus of Rats (normocapnia); format: functional, Brain
Rattus norvegicus [43] = organism: Rattus norvegicus; assay: Compound was evaluated for the measurement of Cerebral blood flow in lateral geniculate body of Rats (hypercapnia); format: functional
Rattus norvegicus [44] = organism: Rattus norvegicus; assay: Compound was evaluated for the measurement of Cerebral blood flow in lateral geniculate body of Rats (normocapnia); format: functional
Rattus norvegicus [45] = organism: Rattus norvegicus; assay: Compound was evaluated for the measurement of Cerebral blood flow in auditory cortex of Rats (normocapnia); format: functional
Rattus norvegicus [46] = organism: Rattus norvegicus; assay: Compound was evaluated for the measurement of Cerebral blood flow in piriform cortex of Rats (hypercapnia); format: functional

Cc1c(I)c(=O)n(-c2ccccc2)n1C [IODOANTIPYRINE]
Blood flow (Rattus norvegicus [1]): 5.18 100ml g-1 min-1
Blood flow (Rattus norvegicus [2]): 1.82 100ml g-1 min-1
Blood flow (Rattus norvegicus [3]): 4.18 100ml g-1 min-1
Blood flow (Rattus norvegicus [4]): 1.5 100ml g-1 min-1
Blood flow (Rattus norvegicus [5]): 3.49 100ml g-1 min-1
Blood flow (Rattus norvegicus [6]): 1.45 100ml g-1 min-1
Blood flow (Rattus norvegicus [7]): 5.5 100ml g-1 min-1
Blood flow (Rattus norvegicus [8]): 1.89 100ml g-1 min-1
Blood flow (Rattus norvegicus [9]): 1.12 100ml g-1 min-1
Blood flow (Rattus norvegicus [10]): 5.75 100ml g-1 min-1
Blood flow (Rattus norvegicus [11]): 1.98 100ml g-1 min-1
Blood flow (Rattus norvegicus [12]): 3.21 100ml g-1 min-1
Blood flow (Rattus norvegicus [13]): 0.85 100ml g-1 min-1
Blood flow (Rattus norvegicus [14]): 3.21 100ml g-1 min-1
Blood flow (Rattus norvegicus [15]): 1.01 100ml g-1 min-1
Blood flow (Rattus norvegicus [16]): 3.78 100ml g-1 min-1
Blood flow (Rattus norvegicus [17]): 3.09 100ml g-1 min-1
Blood flow (Rattus norvegicus [18]): 1.06 100ml g-1 min-1
Blood flow (Rattus norvegicus [19]): 5.79 100ml g-1 min-1
Blood flow (Rattus norvegicus [20]): 3.77 100ml g-1 min-1
Blood flow (Rattus norvegicus [21]): 1.48 100ml g-1 min-1
Blood flow (Rattus norvegicus [22]): 4.77 100ml g-1 min-1
Blood flow (Rattus norvegicus [23]): 1.63 100ml g-1 min-1
Blood flow (Rattus norvegicus [24]): 4.08 100ml g-1 min-1
Blood flow (Rattus norvegicus [25]): 1.52 100ml g-1 min-1
Blood flow (Rattus norvegicus [26]): 1.41 100ml g-1 min-1
Blood flow (Rattus norvegicus [27]): 2.7 100ml g-1 min-1
Blood flow (Rattus norvegicus [28]): 0.82 100ml g-1 min-1
Blood flow (Rattus norvegicus [29]): 3.9 100ml g-1 min-1
Blood flow (Rattus norvegicus [30]): 1.33 100ml g-1 min-1
Blood flow (Rattus norvegicus [31]): 4.67 100ml g-1 min-1
Blood flow (Rattus norvegicus [32]): 2.03 100ml g-1 min-1
Blood flow (Rattus norvegicus [33]): 2.61 100ml g-1 min-1
Blood flow (Rattus norvegicus [34]): 0.66 100ml g-1 min-1
Blood flow (Rattus norvegicus [35]): 5.23 100ml g-1 min-1
Blood flow (Rattus norvegicus [36]): 1.64 100ml g-1 min-1
Blood flow (Rattus norvegicus [37]): 2.84 100ml g-1 min-1
Blood flow (Rattus norvegicus [38]): 0.87 100ml g-1 min-1
Blood flow (Rattus norvegicus [39]): 3.14 100ml g-1 min-1
Blood flow (Rattus norvegicus [40]): 1.05 100ml g-1 min-1
Blood flow (Rattus norvegicus [41]): 4.76 100ml g-1 min-1
Blood flow (Rattus norvegicus [42]): 1.99 100ml g-1 min-1
Blood flow (Rattus norvegicus [43]): 3.97 100ml g-1 min-1
Blood flow (Rattus norvegicus [44]): 1.4 100ml g-1 min-1
Blood flow (Rattus norvegicus [45]): 3.12 100ml g-1 min-1
Blood flow (Rattus norvegicus [46]): 3.11 100ml g-1 min-1

Cc1c(C(C)C)c(=O)n(-c2ccccc2)n1C [PROPYPHENAZONE]
Blood flow (Rattus norvegicus [1]): 6.94 100ml g-1 min-1
Blood flow (Rattus norvegicus [2]): 2.18 100ml g-1 min-1
Blood flow (Rattus norvegicus [3]): 5.49 100ml g-1 min-1
Blood flow (Rattus norvegicus [4]): 1.45 100ml g-1 min-1
Blood flow (Rattus norvegicus [5]): 4.91 100ml g-1 min-1
Blood flow (Rattus norvegicus [6]): 1.36 100ml g-1 min-1
Blood flow (Rattus norvegicus [7]): 6.95 100ml g-1 min-1
Blood flow (Rattus norvegicus [8]): 1.89 100ml g-1 min-1
Blood flow (Rattus norvegicus [9]): 1.05 100ml g-1 min-1
Blood flow (Rattus norvegicus [10]): 7.24 100ml g-1 min-1
Blood flow (Rattus norvegicus [11]): 1.91 100ml g-1 min-1
Blood flow (Rattus norvegicus [12]): 3.34 100ml g-1 min-1
Blood flow (Rattus norvegicus [13]): 0.91 100ml g-1 min-1
Blood flow (Rattus norvegicus [14]): 3.9 100ml g-1 min-1
Blood flow (Rattus norvegicus [15]): 1 100ml g-1 min-1
Blood flow (Rattus norvegicus [16]): 4.66 100ml g-1 min-1
Blood flow (Rattus norvegicus [17]): 3.65 100ml g-1 min-1
Blood flow (Rattus norvegicus [18]): 0.95 100ml g-1 min-1
Blood flow (Rattus norvegicus [19]): 5.66 100ml g-1 min-1
Blood flow (Rattus norvegicus [20]): 4.18 100ml g-1 min-1
Blood flow (Rattus norvegicus [21]): 1.49 100ml g-1 min-1
Blood flow (Rattus norvegicus [22]): 6.84 100ml g-1 min-1
Blood flow (Rattus norvegicus [23]): 1.73 100ml g-1 min-1
Blood flow (Rattus norvegicus [24]): 4.97 100ml g-1 min-1
Blood flow (Rattus norvegicus [25]): 1.3 100ml g-1 min-1
Blood flow (Rattus norvegicus [26]): 1.35 100ml g-1 min-1
Blood flow (Rattus norvegicus [27]): 1.98 100ml g-1 min-1
Blood flow (Rattus norvegicus [28]): 0.83 100ml g-1 min-1
Blood flow (Rattus norvegicus [29]): 3.45 100ml g-1 min-1
Blood flow (Rattus norvegicus [30]): 1.34 100ml g-1 min-1
Blood flow (Rattus norvegicus [31]): 5.34 100ml g-1 min-1
Blood flow (Rattus norvegicus [32]): 2.26 100ml g-1 min-1
Blood flow (Rattus norvegicus [33]): 2.85 100ml g-1 min-1
Blood flow (Rattus norvegicus [34]): 0.73 100ml g-1 min-1
Blood flow (Rattus norvegicus [35]): 5.29 100ml g-1 min-1
Blood flow (Rattus norvegicus [36]): 1.43 100ml g-1 min-1
Blood flow (Rattus norvegicus [37]): 2.77 100ml g-1 min-1
Blood flow (Rattus norvegicus [38]): 0.87 100ml g-1 min-1
Blood flow (Rattus norvegicus [39]): 3.63 100ml g-1 min-1
Blood flow (Rattus norvegicus [40]): 0.97 100ml g-1 min-1
Blood flow (Rattus norvegicus [41]): 5.3 100ml g-1 min-1
Blood flow (Rattus norvegicus [42]): 1.99 100ml g-1 min-1
Blood flow (Rattus norvegicus [43]): 5.46 100ml g-1 min-1
Blood flow (Rattus norvegicus [44]): 1.45 100ml g-1 min-1
Blood flow (Rattus norvegicus [45]): 2.36 100ml g-1 min-1
Blood flow (Rattus norvegicus [46]): 3.56 100ml g-1 min-1
